Source: PubChem BioAssay AID1259407 (Chemical Carcinogenesis Research Information System (CCRIS), 2018)
Active and inactive are the calls of the source. No rule for the calls is given here.

Tested on: CCRIS mutagenicity, Ames/micronucleus/aberration tests
Experiment: CCRIS mutagenicity studies
[1] = Test System: AMES SALMONELLA TYPHIMURIUM, Strain/Indicator: TA98, Metabolic Activation: NONE, Method: PREINCUBATION
[2] = Test System: AMES SALMONELLA TYPHIMURIUM, Strain/Indicator: TA100, Metabolic Activation: NONE, Method: PREINCUBATION

With O=c1ccc2ccccc2o1 the mutagenic call (End Point: IN VITRO CHROMOSOMAL ABERRATIONS, Test System: CHINESE HAMSTER OVARY CELLS, Metabolic Activation: NONE) was “inactive; negative”, the mutagenic call (End Point: IN VITRO CHROMOSOMAL ABERRATIONS, Test System: CHINESE HAMSTER OVARY CELLS, Metabolic Activation: RAT, LIVER, S-9, AROCLOR 1254) was “active; positive” and the mutagenic call (End Point: IN VIVO MICRONUCLEUS, Test System: BONE MARROW CELLS, Species: MOUSE, Strain/Sex: SWISS/MALE, FEMALE, Route: GAVAGE) was “inactive; negative”. The mutagenic call (Test System: AMES SALMONELLA TYPHIMURIUM, Strain/Indicator: TA98, Metabolic Activation: HAMSTER, LIVER, S-9, AROCLOR 1254 (10%), Method: PREINCUBATION) was “inactive; negative”, the mutagenic call (Test System: AMES SALMONELLA TYPHIMURIUM, Strain/Indicator: TA98, Metabolic Activation: NONE, Method: FLUCTUATION (MICROTITER)) was “inactive; negative” and the mutagenic call [1] was “inactive; negative”. For the same molecule, the mutagenic call (Test System: AMES SALMONELLA TYPHIMURIUM, Strain/Indicator: TA98, Metabolic Activation: RAT LIVER S-9, AROCLOR 1254, Method: FLUCTUATION (MICROTITER)) was “inactive; negative”, the mutagenic call (Test System: AMES SALMONELLA TYPHIMURIUM, Strain/Indicator: TA98, Metabolic Activation: RAT, LIVER, S-9, AROCLOR 1254 (10%), Method: PREINCUBATION) was “inactive; negative” and the mutagenic call (Test System: AMES SALMONELLA TYPHIMURIUM, Strain/Indicator: TA100, Metabolic Activation: HAMSTER, LIVER, S-9, AROCLOR 1254 (10%), Method: PREINCUBATION) was “active; positive”. For the same molecule, the mutagenic call [2] was “inactive; negative”, the mutagenic call (Test System: AMES SALMONELLA TYPHIMURIUM, Strain/Indicator: TA1535, Metabolic Activation: HAMSTER, LIVER, S-9, AROCLOR 1254 (10%), Method: PREINCUBATION) was “inactive; negative” and the mutagenic call (Test System: AMES SALMONELLA TYPHIMURIUM, Strain/Indicator: TA1535, Metabolic Activation: NONE, Method: PREINCUBATION) was “inactive; negative”. The mutagenic call (Test System: AMES SALMONELLA TYPHIMURIUM, Strain/Indicator: TA1535, Metabolic Activation: RAT, LIVER, S-9, AROCLOR 1254 (10%), Method: PREINCUBATION) was “inactive; negative”, the mutagenic call (Test System: AMES SALMONELLA TYPHIMURIUM, Strain/Indicator: TA1537, Metabolic Activation: HAMSTER, LIVER, S-9, AROCLOR 1254 (10%), Method: PREINCUBATION) was “inactive; negative” and the mutagenic call (Test System: AMES SALMONELLA TYPHIMURIUM, Strain/Indicator: TA1537, Metabolic Activation: NONE, Method: FLUCTUATION (MICROTITER)) was “inactive; negative”. The mutagenic call (Test System: AMES SALMONELLA TYPHIMURIUM, Strain/Indicator: TA1537, Metabolic Activation: NONE, Method: PREINCUBATION) was “inactive; negative”, the mutagenic call (Test System: AMES SALMONELLA TYPHIMURIUM, Strain/Indicator: TA1537, Metabolic Activation: RAT LIVER S-9, AROCLOR 1254, Method: FLUCTUATION (MICROTITER)) was “inactive; negative” and the mutagenic call (Test System: AMES SALMONELLA TYPHIMURIUM, Strain/Indicator: TA1537, Metabolic Activation: RAT, LIVER, S-9, AROCLOR 1254 (10%), Method: PREINCUBATION) was “inactive; negative”. For the same molecule, the mutagenic call (Test System: AMES SALMONELLA TYPHIMURIUM, Strain/Indicator: TA7001, Metabolic Activation: NONE, Method: FLUCTUATION (MICROTITER)) was “inactive; negative”, the mutagenic call (Test System: AMES SALMONELLA TYPHIMURIUM, Strain/Indicator: TA7001, Metabolic Activation: RAT LIVER S-9, AROCLOR 1254, Method: FLUCTUATION (MICROTITER)) was “inactive; negative” and the mutagenic call (Test System: AMES SALMONELLA TYPHIMURIUM, Strain/Indicator: TA7002, Metabolic Activation: NONE, Method: FLUCTUATION (MICROTITER)) was “inactive; negative”. For the same molecule, the mutagenic call (Test System: AMES SALMONELLA TYPHIMURIUM, Strain/Indicator: TA7002, Metabolic Activation: RAT LIVER S-9, AROCLOR 1254, Method: FLUCTUATION (MICROTITER)) was “active; positive”, the mutagenic call (Test System: AMES SALMONELLA TYPHIMURIUM, Strain/Indicator: TA7003, Metabolic Activation: NONE, Method: FLUCTUATION (MICROTITER)) was “inactive; negative” and the mutagenic call (Test System: AMES SALMONELLA TYPHIMURIUM, Strain/Indicator: TA7003, Metabolic Activation: RAT LIVER S-9, AROCLOR 1254, Method: FLUCTUATION (MICROTITER)) was “inactive; negative”. For the same molecule, the mutagenic call (Test System: AMES SALMONELLA TYPHIMURIUM, Strain/Indicator: TA7004, Metabolic Activation: NONE, Method: FLUCTUATION (MICROTITER)) was “inactive; negative”, the mutagenic call (Test System: AMES SALMONELLA TYPHIMURIUM, Strain/Indicator: TA7004, Metabolic Activation: RAT LIVER S-9, AROCLOR 1254, Method: FLUCTUATION (MICROTITER)) was “inactive; negative” and the mutagenic call (Test System: AMES SALMONELLA TYPHIMURIUM, Strain/Indicator: TA7005, Metabolic Activation: NONE, Method: FLUCTUATION (MICROTITER)) was “inactive; negative”. For the same molecule, the mutagenic call (Test System: AMES SALMONELLA TYPHIMURIUM, Strain/Indicator: TA7005, Metabolic Activation: RAT LIVER S-9, AROCLOR 1254, Method: FLUCTUATION (MICROTITER)) was “inactive; negative”, the mutagenic call (Test System: AMES SALMONELLA TYPHIMURIUM, Strain/Indicator: TA7006, Metabolic Activation: NONE, Method: FLUCTUATION (MICROTITER)) was “inactive; negative” and the mutagenic call (Test System: AMES SALMONELLA TYPHIMURIUM, Strain/Indicator: TA7006, Metabolic Activation: RAT LIVER S-9, AROCLOR 1254, Method: FLUCTUATION (MICROTITER)) was “inactive; negative”. For the same molecule, the mutagenic call (Test System: UDS HUMAN HEPATOCYTES, Strain/Indicator: THY INCORP, Metabolic Activation: NONE, Method: AUTORADIOGRAPHY) was “inactive; negative”.

For C[C@@H]1C[C@H]2[C@@H]3CCC4=CC(=O)C=C[C@]4(C)[C@@]3(F)[C@@H](O)C[C@]2(C)[C@@]1(O)C(=O)CO, the mutagenic call (End Point: IN VITRO CHROMOSOMAL ABERRATIONS, Test System: HUMAN PERIPHERAL LYMPHOCYTES, Metabolic Activation: NONE) was “active; positive at 10 and 100 ug/ml with 72 hr treatment”, the mutagenic call (End Point: IN VIVO MICRONUCLEUS, Test System: BONE MARROW POLYCHROMATIC ERYTHROCYTES, Species: MOUSE, Strain/Sex: SWISS/MALE, Route: IP INJECTION (SINGLE DOSE)) was “active; positive” and the mutagenic call (Test System: AMES SALMONELLA TYPHIMURIUM, Strain/Indicator: TA97A, Metabolic Activation: NONE, Method: STANDARD PLATE) was “inactive; negative”. For the same molecule, the mutagenic call (Test System: AMES SALMONELLA TYPHIMURIUM, Strain/Indicator: TA97A, Metabolic Activation: RAT, LIVER, S-9, PHENOBARBITAL, Method: STANDARD PLATE) was “inactive; negative”, the mutagenic call (Test System: AMES SALMONELLA TYPHIMURIUM, Strain/Indicator: TA98, Metabolic Activation: NONE, Method: STANDARD PLATE) was “inactive; negative” and the mutagenic call (Test System: AMES SALMONELLA TYPHIMURIUM, Strain/Indicator: TA98, Metabolic Activation: RAT, LIVER, S-9, PHENOBARBITAL, Method: STANDARD PLATE) was “inactive; negative”. The mutagenic call (Test System: AMES SALMONELLA TYPHIMURIUM, Strain/Indicator: TA100, Metabolic Activation: NONE, Method: STANDARD PLATE) was “inactive; negative”, the mutagenic call (Test System: AMES SALMONELLA TYPHIMURIUM, Strain/Indicator: TA100, Metabolic Activation: RAT, LIVER, S-9, PHENOBARBITAL, Method: STANDARD PLATE) was “inactive; negative” and the mutagenic call (Test System: AMES SALMONELLA TYPHIMURIUM, Strain/Indicator: TA1535, Metabolic Activation: NONE, Method: STANDARD PLATE) was “inactive; negative”. The mutagenic call (Test System: AMES SALMONELLA TYPHIMURIUM, Strain/Indicator: TA1535, Metabolic Activation: RAT, LIVER, S-9, PHENOBARBITAL, Method: STANDARD PLATE) was “inactive; negative”.

For CCn1c(N)nc2c3cccnc3cc(C)c21, the mutagenic call (Test System: AMES SALMONELLA TYPHIMURIUM, Strain/Indicator: TA98, Metabolic Activation: RAT, LIVER, S-9, AROCLOR 1254, Method: PREINCUBATION) was “active; positive”.

O=C(O)C(Br)(Br)Br was tested, and the mutagenic call (Test System: AMES SALMONELLA TYPHIMURIUM, Strain/Indicator: RSJ100, Metabolic Activation: NONE, Method: PREINCUBATION) was “inactive; negative”, the mutagenic call (Test System: AMES SALMONELLA TYPHIMURIUM, Strain/Indicator: RSJ100, Metabolic Activation: RAT LIVER S-9, Method: PREINCUBATION) was “inactive; negative” and the mutagenic call [1] was “inactive; negative”. For the same molecule, the mutagenic call (Test System: AMES SALMONELLA TYPHIMURIUM, Strain/Indicator: TA98, Metabolic Activation: RAT LIVER S-9, Method: PREINCUBATION) was “inactive; negative”, the mutagenic call (Test System: AMES SALMONELLA TYPHIMURIUM, Strain/Indicator: TA100, Metabolic Activation: NONE, Method: FLUCTUATION TEST) was “active; positive” and the mutagenic call [2] was “inactive; negative”. The mutagenic call (Test System: AMES SALMONELLA TYPHIMURIUM, Strain/Indicator: TA100, Metabolic Activation: RAT LIVER S-9, Method: PREINCUBATION) was “inactive; negative” and the mutagenic call (Test System: AMES SALMONELLA TYPHIMURIUM, Strain/Indicator: TA100, Metabolic Activation: RAT, LIVER, S-9, AROCLOR 1254, Method: FLUCTUATION TEST) was “active; positive”.
